Measurements published in US20210346524A1, “FUSOGENIC LIPOSOMES FOR SELECTIVE IMAGING OF TUMOR CELLS” (APA- Advanced Technologies Ltd., priority 2018, published 2021).

Test: Solubilization of fluorophore in aqueous hydration solution for liposome encapsulation
Assay type: physicochemical

CC1(C)C(/C=C/C=C/C=C/C=C2\N(CCCCS(=O)(=O)O)c3ccc4ccccc4c3C2(C)C)=[N+](CCCCS(=O)(=O)[O-])c2ccc3ccccc3c21 [ICG, indocyanine green]
behaviour in phosphate buffered saline (PBS): creates aggregates
